Holding throughout (test): relative viability (nuclei count vs DMSO), 5 days (fraction); higher = more cells survive
Compound in one experiment: COc1cc2/c(=N/c3ccc(Br)cc3F)nc[nH]c2cc1OCC1CCN(C)CC1 [Vandetanib]
The procedure, abridged: (§1)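 Lung cancer cell lines were seeded into 1536-well plates, kept overnight at 37 °C and pinned with five library-drug doses (not always all listed) spaced by √10. After 5 days, nuclei were Hoechst-stained, imaged at 4× and counted with MetaXpress. Viability is treated-well nuclei over vehicle-well nuclei, taken as a median across plates. Plates needed control CV below 25% and at least one doubling.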

Compound in experiment [1]: C1=CC=C2C(=C1)N=C(S2)C(C#N)C3=NC(=NC=C3)NCCC4=CN=CC=C4
The procedure, abridged:
as §1

Compound in the experiment “NVP-TAE684 + Pemetrexed”: COc1cc(N2CCC(N3CCN(C)CC3)CC2)ccc1Nc1ncc(Cl)c(Nc2ccccc2S(=O)(=O)C(C)C)n1 [NVP-TAE684] + Nc1nc2[nH]cc(CCc3ccc(C(=O)N[C@@H](CCC(=O)O)C(=O)O)cc3)c2c(=O)[nH]1 [Pemetrexed] (partner 0.2 µM)
The essentials: (§2)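 Relative viability divides the nuclei count in treated wells by that in vehicle wells. Lung cancer cell lines were seeded in 1536-well plates, dosed by pin tool the next day, and fixed and stained after 5 days in one step with final 0.05% Triton X-100, 1% formaldehyde and 1 ug/ml Hoechst. Dosing was a single drug or a fixed anchor-drug dose plus five library-drug doses (not always all listed) in √10 steps, and values are medians of duplicate plates imaged at 4×.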

Compound in the experiment “CUDC-101 + Foretinib”: C#Cc1cccc(Nc2ncnc3cc(OC)c(OCCCCCCC(=O)NO)cc23)c1 [CUDC-101] + COc1cc2c(Oc3ccc(NC(=O)C4(C(=O)Nc5ccc(F)cc5)CC4)cc3F)ccnc2cc1OCCCN1CCOCC1 [Foretinib] (partner 0.25 µM)
The essentials: as §2

With NCI-H3122, the relative viability with Vandetanib (0.02 µM) is 0.928; with Vandetanib (0.06325 µM), 1; with Vandetanib (0.2 µM), 1.02; in the experiment with Vandetanib (0.6325 µM), 0.984; with Vandetanib (2 µM) it was 0.978; in experiment [1] (0.005 µM), 0.958. The relative viability in experiment [1] (0.01581 µM) is 0.977; in experiment [1] (0.05 µM) it was 0.98; in experiment [1] (0.1581 µM), 1.03; in experiment [1] (0.5 µM), 0.991; with NVP-TAE684 + Pemetrexed (first compound 0.2 µM), 0.159; with NVP-TAE684 + Pemetrexed (first compound 0.6325 µM), 0.117. Further, the relative viability was found to be 0.114 in the experiment with NVP-TAE684 + Pemetrexed (first compound 2 µM); 1.02 in the experiment with CUDC-101 + Foretinib (first compound 0.01 µM); 0.973 with CUDC-101 + Foretinib (first compound 0.03162 µM); 0.908 with CUDC-101 + Foretinib (first compound 0.1 µM); 0.943 with CUDC-101 + Foretinib (first compound 0.3162 µM); 0.769 with CUDC-101 + Foretinib (first compound 1 µM).

With PC-3 [JPC-3], the relative viability with Vandetanib (0.02 µM) was 1; in the experiment with Vandetanib (0.06325 µM) it was 0.922; with Vandetanib (0.2 µM) it was 0.983; in the experiment with Vandetanib (0.6325 µM), 0.653; with Vandetanib (2 µM) it was 0.507; in experiment [1] (0.005 µM), 0.85. The relative viability in experiment [1] (0.01581 µM) was found to be 0.966; in experiment [1] (0.05 µM), 1.01; in experiment [1] (0.1581 µM), 1.15; in experiment [1] (0.5 µM), 1.07; in the experiment with NVP-TAE684 + Pemetrexed (first compound 0.2 µM), 1.16; with NVP-TAE684 + Pemetrexed (first compound 0.6325 µM), 1.08. Further, the relative viability stood at 0.903 with NVP-TAE684 + Pemetrexed (first compound 2 µM); 1.07 with CUDC-101 + Foretinib (first compound 0.01 µM); 1 with CUDC-101 + Foretinib (first compound 0.03162 µM); 0.882 with CUDC-101 + Foretinib (first compound 0.1 µM); 0.539 with CUDC-101 + Foretinib (first compound 0.3162 µM); 0.294 with CUDC-101 + Foretinib (first compound 1 µM).

Consider PC-14, for which the relative viability was 0.987 with Vandetanib (0.02 µM); 0.833 with Vandetanib (0.06325 µM); 0.574 with Vandetanib (0.2 µM); 0.369 with Vandetanib (0.6325 µM); 0.223 with Vandetanib (2 µM); 0.919 in experiment [1] (0.005 µM). Besides, the relative viability in experiment [1] (0.01581 µM) turned out to be 1.07; in experiment [1] (0.05 µM), 0.95; in experiment [1] (0.1581 µM) it was 1.15; in experiment [1] (0.5 µM), 0.902; with NVP-TAE684 + Pemetrexed (first compound 0.2 µM) it was 0.145; with NVP-TAE684 + Pemetrexed (first compound 0.6325 µM) it was 0.134. Besides, the relative viability with NVP-TAE684 + Pemetrexed (first compound 2 µM) was 0.124; with CUDC-101 + Foretinib (first compound 0.01 µM) it was 0.939; in the experiment with CUDC-101 + Foretinib (first compound 0.03162 µM), 0.745; with CUDC-101 + Foretinib (first compound 0.1 µM), 0.495; with CUDC-101 + Foretinib (first compound 0.3162 µM), 0.628; with CUDC-101 + Foretinib (first compound 1 µM), 0.21.

In the case of RERF-LC-KJ, the relative viability in the experiment with Vandetanib (0.02 µM) was 0.962; in the experiment with Vandetanib (0.06325 µM), 0.954; in the experiment with Vandetanib (0.2 µM), 0.963; with Vandetanib (0.6325 µM), 0.927; in the experiment with Vandetanib (2 µM), 0.815; in experiment [1] (0.005 µM), 0.988. The relative viability in experiment [1] (0.01581 µM) was 1.04; in experiment [1] (0.05 µM), 0.953; in experiment [1] (0.1581 µM), 1.07; in experiment [1] (0.5 µM), 0.895; with NVP-TAE684 + Pemetrexed (first compound 0.2 µM), 0.484; in the experiment with NVP-TAE684 + Pemetrexed (first compound 0.6325 µM), 0.489. In addition, the relative viability came to 0.431 with NVP-TAE684 + Pemetrexed (first compound 2 µM); 0.884 in the experiment with CUDC-101 + Foretinib (first compound 0.01 µM); 0.889 with CUDC-101 + Foretinib (first compound 0.03162 µM); 0.791 with CUDC-101 + Foretinib (first compound 0.1 µM); 0.812 with CUDC-101 + Foretinib (first compound 0.3162 µM); 0.644 with CUDC-101 + Foretinib (first compound 1 µM).

As to SK-LU-1, the relative viability with Vandetanib (0.02 µM) amounted to 1.01; with Vandetanib (0.06325 µM), 0.791; with Vandetanib (0.2 µM) it was 1.02; with Vandetanib (0.6325 µM), 1.07; with Vandetanib (2 µM), 0.984; in experiment [1] (0.005 µM), 0.783. Further, the relative viability in experiment [1] (0.01581 µM) worked out at 1.21; in experiment [1] (0.05 µM), 1.03; in experiment [1] (0.1581 µM) it was 1.18; in experiment [1] (0.5 µM) it was 0.948; with NVP-TAE684 + Pemetrexed (first compound 0.2 µM), 0.826; with NVP-TAE684 + Pemetrexed (first compound 0.6325 µM), 1. The relative viability in the experiment with NVP-TAE684 + Pemetrexed (first compound 2 µM) came out at 0.575; with CUDC-101 + Foretinib (first compound 0.01 µM), 0.885; with CUDC-101 + Foretinib (first compound 0.03162 µM), 0.793; with CUDC-101 + Foretinib (first compound 0.1 µM), 0.891; with CUDC-101 + Foretinib (first compound 0.3162 µM) it was 0.771; in the experiment with CUDC-101 + Foretinib (first compound 1 µM) it was 0.662.

For SK-MES-1, the relative viability with Vandetanib (0.02 µM) is 1; with Vandetanib (0.06325 µM) it was 0.896; with Vandetanib (0.2 µM) it was 1.03; in the experiment with Vandetanib (0.6325 µM) it was 0.912; with Vandetanib (2 µM), 0.827; in experiment [1] (0.005 µM), 1.05. Further, the relative viability was 1.02 in experiment [1] (0.01581 µM); 0.949 in experiment [1] (0.05 µM); 1.09 in experiment [1] (0.1581 µM); 0.882 in experiment [1] (0.5 µM); 0.999 with NVP-TAE684 + Pemetrexed (first compound 0.2 µM); 0.855 with NVP-TAE684 + Pemetrexed (first compound 0.6325 µM). Further, the relative viability turned out to be 0.686 with NVP-TAE684 + Pemetrexed (first compound 2 µM); 0.937 in the experiment with CUDC-101 + Foretinib (first compound 0.01 µM); 0.843 in the experiment with CUDC-101 + Foretinib (first compound 0.03162 µM); 0.981 with CUDC-101 + Foretinib (first compound 0.1 µM); 1.01 with CUDC-101 + Foretinib (first compound 0.3162 µM); 0.679 with CUDC-101 + Foretinib (first compound 1 µM).

Regarding SW 900, the relative viability came to 0.898 with Vandetanib (0.02 µM); 0.887 in the experiment with Vandetanib (0.06325 µM); 0.65 in the experiment with Vandetanib (0.2 µM); 0.93 with Vandetanib (0.6325 µM); 0.775 with Vandetanib (2 µM); 0.899 in experiment [1] (0.005 µM). The relative viability in experiment [1] (0.01581 µM) turned out to be 0.845; in experiment [1] (0.05 µM) it was 0.885; in experiment [1] (0.1581 µM), 1; in experiment [1] (0.5 µM) it was 0.823; in the experiment with NVP-TAE684 + Pemetrexed (first compound 0.2 µM) it was 0.548; with NVP-TAE684 + Pemetrexed (first compound 0.6325 µM), 0.443. For the same cell line, the relative viability with NVP-TAE684 + Pemetrexed (first compound 2 µM) is 0.449; with CUDC-101 + Foretinib (first compound 0.01 µM), 0.761; with CUDC-101 + Foretinib (first compound 0.03162 µM), 0.629; with CUDC-101 + Foretinib (first compound 0.1 µM), 0.738; with CUDC-101 + Foretinib (first compound 0.3162 µM) it was 0.885; with CUDC-101 + Foretinib (first compound 1 µM), 0.716.

Take SW 1573: the relative viability with Vandetanib (0.02 µM) came out at 0.941; with Vandetanib (0.06325 µM), 0.972; with Vandetanib (0.2 µM), 0.92; with Vandetanib (0.6325 µM), 0.979; in the experiment with Vandetanib (2 µM) it was 0.983; in experiment [1] (0.005 µM) it was 0.855. The relative viability in experiment [1] (0.01581 µM) came out at 1.11; in experiment [1] (0.05 µM) it was 0.792; in experiment [1] (0.1581 µM), 1.13; in experiment [1] (0.5 µM), 0.978; in the experiment with NVP-TAE684 + Pemetrexed (first compound 0.2 µM), 0.843; in the experiment with NVP-TAE684 + Pemetrexed (first compound 0.6325 µM) it was 0.732. Also, the relative viability with NVP-TAE684 + Pemetrexed (first compound 2 µM) was 0.396; in the experiment with CUDC-101 + Foretinib (first compound 0.01 µM) it was 1.02; with CUDC-101 + Foretinib (first compound 0.03162 µM) it was 1.03; with CUDC-101 + Foretinib (first compound 0.1 µM), 1.08; in the experiment with CUDC-101 + Foretinib (first compound 0.3162 µM) it was 0.862; in the experiment with CUDC-101 + Foretinib (first compound 1 µM) it was 0.611.

The values are drawn from the supplement of paper PMC10307832.
